Where two headings read alike, the source gives them in different places. Marks after values point to notes of the source that are not given here.
What was measured:
Mouse liver microsome = type: in vitro ADME; settings: mouse liver microsomes; data generated via Medicines for Malaria Venture
Solubility in PBS pH 7.4 = type: physicochemical
[1] = Log D in octanol/PBS pH 7.4; type: physicochemical
[2] = Mouse pharmacokinetics after a single oral dose; type: in vivo
[3] = human liver microsomes; cited from earlier work
P. berghei = settings: cited from earlier work
[4] = cited from earlier work
[5] = cited from earlier work; remark: listed apart in the source
[6] = single dose of 50 mg/kg by oral gavage, male CD-1 mice
[7] = male, CD-1, mouse, plasma, po, 50 mg/kg

Compound	MLM CLint (Mouse liver microsome) [µL/min/mg]	MLM T1/2 (Mouse liver microsome) [min]	Solubility in PBS pH 7.4 (Solubility in PBS pH 7.4) [μM]	Log D in octanol/PBS; pH 7.4 ([1]; data generated via Medicines for Malaria Venture)	fold lower systemic exposure than 8c or 8n ([2]; mouse PK study with oral dosing)	AUClast [2, 6] [ng·h/mL]	Cmax [2, 6] [ng/mL]	Tmax [2, 6] [h]	HLM CLint [3] [µL/min/mg]	HLM T1/2 [3] [min]	cures (P. berghei; Experiment 1, PO 6 mg/kg/day (4 days), female Swiss Webster mice, cured = parasitemia undetectable at day 30)	Solubility in PBS pH 7.4 [4]	Log D in octanol/PBS; pH 7.4 [5]	logD [1]	AUC(0-t) [2, 7] [ng·h/mL]	Tmax [2, 7] [h]	effective single dose in the P. berghei model (P. berghei; single dose) [mg/kg]
O=C(O[C@@H]1CCC[C@]2(C1)OOC1(O2)C2CC3CC(C2)CC1C3)N1CCNCC1 (stereo partly drawn) [8e, (1R,3”R)-Dispiro[adamantane-2,3’-[1,2,4]trioxolane-5’,1”-cyclohexan]-3”-yl piperazine-1-carboxylate]	321	4.3	157.0	3.25	~ three-fold	1070 ± 127	223 ± 25	2	–	–	–	–	–	–	–	–	–
CC(C)(N)CNC(=O)C[C@H]1CC[C@]2(CC1)OO[C@]1(O2)C2CC3CC(C2)CC1C3 [OZ277, arterolane]	–	–	–	–	–	–	–	–	<7	>60	4/5	504 μM	–	–	–	–	–
c1cc([C@H]2CC[C@]3(CC2)OO[C@]2(O3)C3CC4CC(C3)CC2C4)ccc1OCCN1CCOCC1 [OZ439, artefenomel]	–	–	–	–	–	–	–	–	–	–	–	0.181^b μM	5.5	5.81	52600 ± 4810	2	20

Source: article PMC7363035 (ACS infectious diseases, 2020)
